Data published in US7064120B2, “Tricyclic pyridyl carboxamides and derivatives thereof tocolytic oxytocin receptor antagonists” (Wyeth, priority 2001, dated 2006).

Molecular target: T1, human vasopressin V2 receptor subtype (Homo sapiens, UniProt P30518)
T1 construct: host or cells: CHO cells, stably transfected (pZeoSV vector)
Assay: Vasopressin binding in CHO cell membranes expressing human vasopressin V2 subtype receptors ([3H]arginine vasopressin radioligand binding)
Conditions: for IC50: value in parentheses
Procedure, shortened: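 Membranes from CHO cells stably expressing human V2 receptor (25 to 50 μg protein/well) incubated 60 min at room temperature with [3H]arginine vasopressin in Tris-HCl pH 7.4 buffer with MgCl2, BSA and protease inhibitors. Filtration, scintillation counting; percent inhibition at one concentration or IC50 (nM).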

T1 sequence (P30518 whole entry): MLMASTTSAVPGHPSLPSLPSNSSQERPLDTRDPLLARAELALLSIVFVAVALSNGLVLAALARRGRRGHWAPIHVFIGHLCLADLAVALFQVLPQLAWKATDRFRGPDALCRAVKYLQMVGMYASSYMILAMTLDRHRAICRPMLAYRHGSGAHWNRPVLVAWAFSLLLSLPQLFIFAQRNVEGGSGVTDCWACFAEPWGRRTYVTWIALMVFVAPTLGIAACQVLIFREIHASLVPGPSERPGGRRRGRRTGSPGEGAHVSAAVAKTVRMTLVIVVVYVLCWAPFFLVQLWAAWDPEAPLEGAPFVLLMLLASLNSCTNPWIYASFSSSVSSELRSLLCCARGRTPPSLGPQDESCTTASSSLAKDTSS

Row | inhibition at 0.1 µM (100 nM) | Compound | further results
1 | 23% | COc1ccccc1-c1ccc(C(=O)N2Cc3ccc(C(=O)N(C)Cc4cccnc4)n3Cc3ccccc32)cc1 [Example 104, 10-[(2′-Methoxy-[1,1′-biphenyl]-4-yl)carbonyl]-N-methyl-N-(3-pyridinylmethyl)-10,11-dihydro-5H-pyrrolo[2,1-c][1,4]benzodiazepine-3-carboxamide] | 
2 | 12% | O=C(NCc1ccncc1)c1ccc2n1Cc1ccccc1N(C(=O)c1ccc(-c3cccc4ccccc34)cc1Cl)C2 [Example 99, 10-[2-Chloro-4-(naphthalen-1-yl)benzoyl]-N-(4-pyridinylmethyl)-10,11-dihydro-5H-pyrrolo[2,1-c][1,4]benzodiazepine-3-carboxamide] | 
3 | 27% | COc1cc(C(=O)N2Cc3ccc(C(=O)NCc4ccncc4)n3Cc3ccccc32)ccc1-c1ccccc1C [Example 93, 10-[(2-Methoxy-2′-methyl-[1,1′-biphenyl]-4-yl)carbonyl]-N-(4-pyridinylmethyl)-10,11-dihydro-5H-pyrrolo[2,1-c][1,4]benzodiazepine-3-carboxamide] | 
4 | 4% | Cc1cc(C(=O)N2Cc3ccc(C(=O)N4CCN(c5ccccn5)CC4)n3Cc3ccccc32)ccc1-c1ccccc1C(F)(F)F [Example 87, (10-{[2-Methyl-2′-trifluoromethyl-[1,1′-biphenyl]-4-yl]carbonyl}-10,11-dihydro-5H-pyrrolo[2,1-c][1,4]benzodiazepin-3-yl)[4-(2-pyridinyl)-1-piperazinyl]methanone] | 
5 | 0% | Cc1cc(C(=O)N2Cc3ccc(C(=O)NCc4ccncc4)n3Cc3ccccc32)ccc1-c1ccccc1C(F)(F)F [Example 100, 10-{[2-Methyl-2′-trifluoromethyl-[1,1′-biphenyl]-4-yl]carbonyl}-N-(4-pyridinylmethyl)-10,11-dihydro-5H-pyrrolo[2,1-c][1,4]benzodiazepine-3-carboxamide] | 
6 | 16% | COc1ccccc1-c1ccc(C(=O)N2Cc3ccc(C(=O)NCc4ccncc4)n3Cc3ccccc32)cc1OC [Example 97, 10-[(2,2′-Dimethoxy-[1,1′-biphenyl]-4-yl)carbonyl]-N-(4-pyridinylmethyl)-10,11-dihydro-5H-pyrrolo[2,1-c][1,4]benzodiazepine-3-carboxamide] | 

Second part, the compound before the results:

Row | Compound | inhibition at 0.1 µM (100 nM) | further results
7 | COc1cccc(-c2cc(OC)c(C(=O)N3Cc4ccc(C(=O)N(C)CCc5ccccn5)n4Cc4ccccc43)cc2Cl)c1 [Example 70, 10-[(6-Chloro-3,3′-dimethoxy-[1,1′-biphenyl]-4-yl)carbonyl]-N-methyl-N-[2-(2-pyridinyl)ethyl]-10,11-dihydro-5H-pyrrolo[2,1-c][1,4]benzodiazepine-3-carboxamide] | 10% | 
8 | Cc1cc(C(=O)N2Cc3ccc(C(=O)N(C)Cc4ccc[n+]([O-])c4)n3Cc3ccccc32)ccc1-c1ccccc1C(F)(F)F [Example 4, N-Methyl-10-{[2-methyl-2′-trifluoromethyl-[1,1′-biphenyl]-4-yl]carbonyl}-N-[(1-oxidopyridin-3-yl)methyl]-10,11-dihydro-5H-pyrrolo[2,1-c][1,4]benzodiazepine-3-carboxamide] |  | IC50: 464 nM
9 | COc1ccccc1-c1ccc(C(=O)N2Cc3ccc(C(=O)N(C)CCc4ccccn4)n3Cc3ccccc32)cc1 [Example 67, 10-[(2′-Methoxy-[1,1′-biphenyl]-4-yl)carbonyl]-N-methyl-N-[2-(2-pyridinyl)ethyl]-10,11-dihydro-5H-pyrrolo[2,1-c][1,4]benzodiazepine-3-carboxamide] | 24% | 
10 | COc1cc(-c2ccccc2C)c(Cl)cc1C(=O)N1Cc2ccc(C(=O)N(C)CCc3ccccn3)n2Cc2ccccc21 [Example 63, 10-[(6-Chloro-3-methoxy-2′-methyl-[1,1′-biphenyl]-4-yl)carbonyl]-N-methyl-N-[2-(2-pyridinyl)ethyl]-10,11-dihydro-5H-pyrrolo[2,1-c][1,4]benzodiazepine-3-carboxamide] |  | IC50: 714 nM
11 | COc1ccccc1-c1ccc(C(=O)N2Cc3ccc(C(=O)N(C)Cc4cccnc4)n3Cc3ccccc32)cc1OC [Example 103, 10-[(2,2′-Dimethoxy-[1,1′-biphenyl]-4-yl)carbonyl]-N-methyl-N-(3-pyridinylmethyl)-10,11-dihydro-5H-pyrrolo[2,1-c][1,4]benzodiazepine-3-carboxamide] |  | IC50: 318 nM
12 | COc1cccc(-c2ccc(C(=O)N3Cc4ccc(C(=O)N5CCN(c6ccccn6)CC5)n4Cc4ccccc43)cc2C)c1 [Example 77, {10-[(3′-Methoxy-2-methyl-[1,1′-biphenyl]-4-yl)carbonyl]-10,11-dihydro-5H-pyrrolo[2,1-c][1,4]benzodiazepin-3-yl}[4-(2-pyridinyl)-1-piperazinyl]methanone] | 10% | 
13 | Cc1cc(C(=O)N2Cc3ccc(C(=O)N(C)CCc4ccccn4)n3Cc3ccccc32)ccc1-c1ccccc1C(F)(F)F [Example 74, N-Methyl-10-{[2-methyl-2′-trifluoromethyl-[1,1′-biphenyl]-4-yl]carbonyl}-N-[2-(2-pyridinyl)ethyl]-10,11-dihydro-5H-pyrrolo[2,1-c][1,4]benzodiazepine-3-carboxamide] | 1% | 
14 | Cc1ccccc1-c1ccc(C(=O)N2Cc3ccc(C(=O)N(C)CCc4ccccn4)n3Cc3ccccc32)cc1 [Example 68, N-Methyl-10-[(2′-methyl-[1,1′-biphenyl]-4-yl)carbonyl]-N-[2-(2-pyridinyl)ethyl]-10,11-dihydro-5H-pyrrolo[2,1-c][1,4]benzodiazepine-3-carboxamide] | 13% | 
15 | Cc1ccccc1-c1ccc(C(=O)N2Cc3ccc(C(=O)N4CCN(c5ccccn5)CC4)n3Cc3ccccc32)cc1 [Example 79, {10-[(2′-Methyl-[1,1′-biphenyl]-4-yl)carbonyl]-10,11-dihydro-5H-pyrrolo[2,1-c][1,4]benzodiazepin-3-yl}[4-(2-pyridinyl)-1-piperazinyl]methanone] | 10% | 
16 | COc1ccccc1-c1ccc(C(=O)N2Cc3ccc(C(=O)N4CCN(c5ccccn5)CC4)n3Cc3ccccc32)cc1C [Example 75, {10-[(2′-Methoxy-2-methyl-[1,1′-biphenyl]-4-yl)carbonyl]-10,11-dihydro-5H-pyrrolo[2,1-c][1,4]benzodiazepin-3-yl}[4-(2-pyridinyl)-1-piperazinyl]methanone] | 9% | 
17 | COc1cc(C(=O)N2Cc3ccc(C(=O)N(C)Cc4cccnc4)n3Cc3ccccc32)ccc1-c1ccccc1C(F)(F)F [Example 7, 10-{[2-Methoxy-2′-trifluoromethyl-[1,1′-biphenyl]-4-yl]carbonyl}-N-methyl-N-(pyridin-3-ylmethyl)-10,11-dihydro-5H-pyrrolo[2,1-c][1,4]benzodiazepine-3-carboxamide] |  | IC50: 407 nM
18 | COc1cccc(-c2ccc(C(=O)N3Cc4ccc(C(=O)N(C)CCc5ccccn5)n4Cc4ccccc43)cc2OC)c1 [Example 72, 10-[(2,3′-Dimethoxy-[1,1′-biphenyl]-4-yl)carbonyl]-N-methyl-N-[2-(2-pyridinyl)ethyl]-10,11-dihydro-5H-pyrrolo[2,1-c][1,4]benzodiazepine-3-carboxamide] | 11% | 
19 | Cc1cc(C(=O)N2Cc3ccc(C(=O)N4CCN(c5ccncc5)CC4)n3Cc3ccccc32)ccc1-c1ccccc1C(F)(F)F [Example 1] |  | V2 % inhibition @ 100 nM (100 nM): 18%
